Active and inactive are the calls of the source. No rule for the calls is given here.
Tested on: CCRIS mutagenicity, Ames/micronucleus/aberration tests
Test: CCRIS mutagenicity studies
[1] = Test System: AMES SALMONELLA TYPHIMURIUM, Strain/Indicator: TA98, Metabolic Activation: NONE, Method: PREINCUBATION
[2] = Test System: AMES SALMONELLA TYPHIMURIUM, Strain/Indicator: TA100, Metabolic Activation: NONE, Method: PREINCUBATION
[3] = Test System: AMES SALMONELLA TYPHIMURIUM, Strain/Indicator: TA1535, Metabolic Activation: NONE, Method: PREINCUBATION
[4] = Test System: AMES SALMONELLA TYPHIMURIUM, Strain/Indicator: TA1537, Metabolic Activation: NONE, Method: PREINCUBATION
[5] = Test System: AMES SALMONELLA TYPHIMURIUM, Strain/Indicator: TA98, Metabolic Activation: NONE, Method: STANDARD PLATE
[6] = Test System: AMES SALMONELLA TYPHIMURIUM, Strain/Indicator: TA98, Metabolic Activation: RAT, LIVER, S-9, AROCLOR 1254, Method: STANDARD PLATE
[7] = Test System: AMES SALMONELLA TYPHIMURIUM, Strain/Indicator: TA100, Metabolic Activation: NONE, Method: STANDARD PLATE

Measured: mutagenic call

COc1ccc2c(c1)C(=O)c1nccc3cc4c(c-2c13)OCO4
active: Test System: AMES SALMONELLA TYPHIMURIUM, Strain/Indicator: TA98, Metabolic Activation: RAT, LIVER, S-9, PHENOBARBITAL AND BETA-NAPHTHOFLAVONE, Method: PREINCUBATION active; positive | Test System: AMES SALMONELLA TYPHIMURIUM, Strain/Indicator: TA100, Metabolic Activation: RAT, LIVER, S-9, PHENOBARBITAL AND BETA-NAPHTHOFLAVONE, Method: PREINCUBATION active; positive

CCCCCCCCCc1ccc(OP(=O)(Oc2ccccc2)Oc2ccccc2)cc1
inactive: Test System: AMES SALMONELLA TYPHIMURIUM, Strain/Indicator: TA97, Metabolic Activation: HAMSTER, LIVER, S-9, AROCLOR 1254 (5, 10 OR 30%), Method: PREINCUBATION inactive; negative | Test System: AMES SALMONELLA TYPHIMURIUM, Strain/Indicator: TA97, Metabolic Activation: RAT, LIVER, S-9, AROCLOR 1254 (10%), Method: PREINCUBATION inactive; negative | Test System: AMES SALMONELLA TYPHIMURIUM, Strain/Indicator: TA97, Metabolic Activation: RAT, LIVER, S-9, AROCLOR 1254 (30%), Method: PREINCUBATION inactive; negative | Test System: AMES SALMONELLA TYPHIMURIUM, Strain/Indicator: TA98, Metabolic Activation: HAMSTER, LIVER, S-9, AROCLOR 1254 (10 OR 30%), Method: PREINCUBATION inactive; negative | [1] inactive; negative | Test System: AMES SALMONELLA TYPHIMURIUM, Strain/Indicator: TA98, Metabolic Activation: RAT, LIVER, S-9, AROCLOR 1254 (10 OR 30%), Method: PREINCUBATION inactive; negative | Test System: AMES SALMONELLA TYPHIMURIUM, Strain/Indicator: TA100, Metabolic Activation: HAMSTER, LIVER, S-9, AROCLOR 1254 (10 OR 30%), Method: PREINCUBATION inactive; negative | [2] inactive; negative | Test System: AMES SALMONELLA TYPHIMURIUM, Strain/Indicator: TA100, Metabolic Activation: RAT, LIVER, S-9, AROCLOR 1254 (10 OR 30%), Method: PREINCUBATION inactive; negative | Test System: AMES SALMONELLA TYPHIMURIUM, Strain/Indicator: TA1535, Metabolic Activation: HAMSTER, LIVER, S-9, AROCLOR 1254 (10 OR 30%), Method: PREINCUBATION inactive; negative | [3] inactive; negative | Test System: AMES SALMONELLA TYPHIMURIUM, Strain/Indicator: TA1535, Metabolic Activation: RAT, LIVER, S-9, AROCLOR 1254 (10 OR 30%), Method: PREINCUBATION inactive; negative | Test System: AMES SALMONELLA TYPHIMURIUM, Strain/Indicator: TA1537, Metabolic Activation: HAMSTER, LIVER, S-9, AROCLOR 1254 (5, 10 OR 30%), Method: PREINCUBATION inactive; negative | [4] inactive; negative | Test System: AMES SALMONELLA TYPHIMURIUM, Strain/Indicator: TA1537, Metabolic Activation: RAT, LIVER, S-9, AROCLOR 1254 (5, 10 OR 30%), Method: PREINCUBATION inactive; negative

Cc1c(N)cnc2c1nc1c(C)cccn12
inactive: [5] inactive; negative
active: Test System: AMES SALMONELLA TYPHIMURIUM, Strain/Indicator: TA98, Metabolic Activation: RAT, LIVER, CYTOSOL, AROCLOR 1254, Method: STANDARD PLATE active; positive | Test System: AMES SALMONELLA TYPHIMURIUM, Strain/Indicator: TA98, Metabolic Activation: RAT, LIVER, MICROSOMES, AROCLOR 1254, Method: STANDARD PLATE active; positive | [6] active; positive

Cc1c(C)c2c(nc(N)n2C)c2nccnc12
active: [6] active; positive

N#CN=C(N)N
inactive: Test System: AMES SALMONELLA TYPHIMURIUM, Strain/Indicator: TA98, Metabolic Activation: MOUSE, LIVER, S-9, Method: PREINCUBATION inactive; negative | [1] inactive; negative | Test System: AMES SALMONELLA TYPHIMURIUM, Strain/Indicator: TA98, Metabolic Activation: RAT LIVER S-9, PHENOBARBITAL AND BETA-NAPHTHOFLAVONE, Method: PREINCUBATION inactive; negative | Test System: AMES SALMONELLA TYPHIMURIUM, Strain/Indicator: TA100, Metabolic Activation: MAIZE SEEDLING, S-14, Method: PREINCUBATION inactive; negative | Test System: AMES SALMONELLA TYPHIMURIUM, Strain/Indicator: TA100, Metabolic Activation: MOUSE, LIVER, S-9, Method: PREINCUBATION inactive; negative | [2] inactive; negative | Test System: AMES SALMONELLA TYPHIMURIUM, Strain/Indicator: TA100, Metabolic Activation: RAT LIVER S-9, PHENOBARBITAL AND BETA-NAPHTHOFLAVONE, Method: PREINCUBATION inactive; negative | Test System: AMES SALMONELLA TYPHIMURIUM, Strain/Indicator: TA102, Metabolic Activation: NONE, Method: PREINCUBATION inactive; negative | Test System: AMES SALMONELLA TYPHIMURIUM, Strain/Indicator: TA102, Metabolic Activation: RAT LIVER S-9, PHENOBARBITAL AND BETA-NAPHTHOFLAVONE, Method: PREINCUBATION inactive; negative | Test System: AMES SALMONELLA TYPHIMURIUM, Strain/Indicator: TA104, Metabolic Activation: NONE, Method: PREINCUBATION inactive; negative | Test System: AMES SALMONELLA TYPHIMURIUM, Strain/Indicator: TA104, Metabolic Activation: RAT LIVER S-9, PHENOBARBITAL AND BETA-NAPHTHOFLAVONE, Method: PREINCUBATION inactive; negative | [3] inactive; negative | Test System: AMES SALMONELLA TYPHIMURIUM, Strain/Indicator: TA1535, Metabolic Activation: RAT LIVER S-9, PHENOBARBITAL AND BETA-NAPHTHOFLAVONE, Method: PREINCUBATION inactive; negative | [4] inactive; negative | Test System: AMES SALMONELLA TYPHIMURIUM, Strain/Indicator: TA1537, Metabolic Activation: RAT LIVER S-9, PHENOBARBITAL AND BETA-NAPHTHOFLAVONE, Method: PREINCUBATION inactive; negative | Test System: AMES SALMONELLA TYPHIMURIUM, Strain/Indicator: TA1538, Metabolic Activation: NONE, Method: PREINCUBATION inactive; negative | Test System: E.COLI, Strain/Indicator: WP2UVRA/PKM101, Metabolic Activation: NONE, Method: PREINCUBATION inactive; negative | Test System: E.COLI, Strain/Indicator: WP2UVRA/PKM101, Metabolic Activation: RAT LIVER S-9, PHENOBARBITAL AND BETA-NAPHTHOFLAVONE, Method: PREINCUBATION inactive; negative | Test System: E.COLI, Strain/Indicator: WP2UVRA, Metabolic Activation: NONE, Method: PREINCUBATION inactive; negative | Test System: E.COLI, Strain/Indicator: WP2UVRA, Metabolic Activation: RAT LIVER S-9, PHENOBARBITAL AND BETA-NAPHTHOFLAVONE, Method: PREINCUBATION inactive; negative
active: Test System: AMES SALMONELLA TYPHIMURIUM, Strain/Indicator: TA98, Metabolic Activation: MAIZE SEEDLING, S-14, Method: PREINCUBATION active; positive

Nc1ccc2[nH]c3ccccc3c2c1[N+](=O)[O-]
inactive: Test System: AMES SALMONELLA TYPHIMURIUM, Strain/Indicator: TA100, Metabolic Activation: RAT, LIVER, S-9, PHENOBARBITAL, Method: STANDARD PLATE inactive; negative
active: [5] active; positive | Test System: AMES SALMONELLA TYPHIMURIUM, Strain/Indicator: TA98, Metabolic Activation: RAT, LIVER, S-9, PHENOBARBITAL, Method: STANDARD PLATE active; positive | [7] active; positive | Test System: AMES SALMONELLA TYPHIMURIUM, Strain/Indicator: TA1537, Metabolic Activation: NONE, Method: STANDARD PLATE active; positive | Test System: AMES SALMONELLA TYPHIMURIUM, Strain/Indicator: TA1537, Metabolic Activation: RAT, LIVER, S-9, PHENOBARBITAL, Method: STANDARD PLATE active; positive | Test System: AMES SALMONELLA TYPHIMURIUM, Strain/Indicator: TA1538, Metabolic Activation: NONE, Method: STANDARD PLATE active; positive | Test System: AMES SALMONELLA TYPHIMURIUM, Strain/Indicator: TA1538, Metabolic Activation: RAT, LIVER, S-9, PHENOBARBITAL, Method: STANDARD PLATE active; positive | Test System: AMES SALMONELLA TYPHIMURIUM, Strain/Indicator: TA1977, Metabolic Activation: NONE, Method: STANDARD PLATE active; positive | Test System: AMES SALMONELLA TYPHIMURIUM, Strain/Indicator: TA1977, Metabolic Activation: RAT, LIVER, S-9, PHENOBARBITAL, Method: STANDARD PLATE active; positive

O=C(Nc1ccc(Cl)cc1)c1csc([N+](=O)[O-])c1
active: [5] active; positive | [7] active; positive
